From US9434688B2, “Indole derivatives as selective androgen receptor modulators (SARMS)” (Janssen Pharmaceutica, NV, priority 2004, dated 2016)

Assays:
androgen receptor = biological target: T1, androgen receptor (Rattus norvegicus, UniProt P15207); experiment: Androgen Receptor Binding Using Rat Ventral Prostate Cytosol; set-up: from tissue; host or cells: ventral prostate cytosol of castrated male Sprague Dawley or Wistar rats; details: Rat Cytosol; Concentration 1000 nM
T1 sequence (P15207 1-902): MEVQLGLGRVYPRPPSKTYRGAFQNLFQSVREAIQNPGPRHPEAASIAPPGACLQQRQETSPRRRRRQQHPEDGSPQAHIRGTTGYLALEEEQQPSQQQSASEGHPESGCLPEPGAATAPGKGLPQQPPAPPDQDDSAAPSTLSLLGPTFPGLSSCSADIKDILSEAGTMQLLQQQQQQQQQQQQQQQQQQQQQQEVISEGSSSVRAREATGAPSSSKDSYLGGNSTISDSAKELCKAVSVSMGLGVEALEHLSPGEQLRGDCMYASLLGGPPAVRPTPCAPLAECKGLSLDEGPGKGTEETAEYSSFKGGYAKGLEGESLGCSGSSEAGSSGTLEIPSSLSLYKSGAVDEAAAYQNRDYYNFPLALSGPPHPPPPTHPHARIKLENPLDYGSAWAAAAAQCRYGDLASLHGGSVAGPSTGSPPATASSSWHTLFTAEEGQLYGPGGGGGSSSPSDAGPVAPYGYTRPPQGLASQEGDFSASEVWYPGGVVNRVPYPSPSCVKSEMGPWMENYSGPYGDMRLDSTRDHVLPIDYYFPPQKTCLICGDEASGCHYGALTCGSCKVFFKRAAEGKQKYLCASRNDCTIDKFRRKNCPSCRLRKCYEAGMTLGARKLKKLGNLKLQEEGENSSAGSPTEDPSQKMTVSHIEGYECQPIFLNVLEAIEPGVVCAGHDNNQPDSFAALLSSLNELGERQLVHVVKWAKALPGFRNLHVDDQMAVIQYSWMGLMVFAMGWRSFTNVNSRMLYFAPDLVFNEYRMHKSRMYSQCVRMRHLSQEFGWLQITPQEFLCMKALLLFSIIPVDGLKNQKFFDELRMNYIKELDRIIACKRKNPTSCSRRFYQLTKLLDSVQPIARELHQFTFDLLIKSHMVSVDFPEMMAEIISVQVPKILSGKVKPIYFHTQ
Description: Rat Prostate Cytosol Preparation:
Male Sprague Dawley or Wistar rats (Charles River, 200-300 g) were used for each preparation. The day before preparing the cytosol, the rats were castrated using standard surgical procedures.
The rats were euthanized by carbon dioxide asphyxiation. The rat prostates were quickly removed and placed on ice in pre-chilled, pre-weighed 50 mL plastic tubes. No more than five prostates were placed into one tube. The tubes were then weighed and the prostate tissue wet weights calculated.
To the chilled prostate tissue was then added […] of chilled homogenization buffer. The homogenization buffer was freshly prepared by mixing 10 mM Tris.HCl, pH 7.4, 1 mM sodium molybdate, 1.5 mM EDTA, 1 mM dithiothreitol, 10% (v/v) glycerol and 1% protease inhibitor cocktail (Sigma P 8340).
The prostate tissue was homogenized in a cold room using a pre-chilled Polytron PT3000 homogenizer (Brinkmann). Homogenization was performed at a speed setting of 20, three times for 10 sec bursts. The tubes containing the prostate tissue was kept on ice while homogenizing. The homogenate was allowed to rest on ice for 20 sec between bursts.
The homogenate was then placed into pre-chilled 3 mL polycarbonate ultracentrifuge tubes and centrifuged in the TLA-100 rotor of a TL-100 ultracentrifuge for 12 min at 100,000 rpm at 4° C. The resulting supernatant was stored in 1 mL aliquots at −80° C. until needed.
Binding to the androgen receptor was determined according to the protocol described in Example 86 using the above prepared rat cytosol.
% Inhibition was determined by testing dilutions of the test compound (usually duplicates of 10 μM) in the binding assay. Counts per well were measured and percents of inhibition determined. […] Counts per well were measured and IC50s determined by linear regression.

[1] = biological target: T2, androgen receptor LBD (Panvera) (Rattus norvegicus, UniProt P15207); experiment: Androgen Receptor Filtration Binding Assay (PANVERA); details: [3H] R1881 tracer
T2 construct: 5 pmol androgen receptor LBD (Panvera); purchased Panvera
T2 sequence (P15207 651-882 limits assumed): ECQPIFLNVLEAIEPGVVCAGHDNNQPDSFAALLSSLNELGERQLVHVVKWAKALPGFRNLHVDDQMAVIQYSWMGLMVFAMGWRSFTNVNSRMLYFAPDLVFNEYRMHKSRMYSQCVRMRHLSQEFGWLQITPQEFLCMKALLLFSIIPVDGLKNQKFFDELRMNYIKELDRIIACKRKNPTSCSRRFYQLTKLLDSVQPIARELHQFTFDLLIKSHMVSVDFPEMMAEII
Description: The assay was run on a 96 well plate with each well filled with a total reaction volume 150 μL, of a solution containing 5 pmol androgen receptor LBD (Panvera) or 30 μL of freshly prepared rat cytosol, 0.5 nM [^3H] […] (TED buffer contains 10 mM Tris.HCl pH 7.4, 1 mM sodium molybdate, 1.5 mM EDTA, 1 mM DTT and 10% (v/v) glycerol.)
On day one, the solution containing receptor, tracer and TED buffer was distributed into a 96 well plate. Diluted test compound or control vehicle was then added to individual wells and the plate incubated at 4° C. overnight.
On day two, to each well was then added 20 μL human γ-globulin (ICN 823102), prepared at 25 mg/ml in TE pH 8.0, and 55 μL 40% polyethylene glycol 8000 (JT Baker U222-08), prepared in TE pH 8.0. The plate was incubated at 4° C. for 60 minutes. During incubation, the harvester was rinsed with 10% PEG 8000, prepared in TE pH 8.0, and a GF/C Unifilter-96 was pre-wet with 10% PEG. The binding reaction was filtered, the retentate was washed three times with 10% PEG and dried under vacuum for a couple of minutes, then dried at 50° C. for 5 min and the plate was bottom sealed. Next, 25 μL of Microscint-20 (Packard) was added to the filter wells and the plate was top sealed. The plate wells were then counted on a TopCount (Packard).
Counts per well were measured and IC50s determined by linear regression.

With `Cc1ccc(C(=O)OCC(C)(O)c2cc3cc([N+](=O)[O-])c(C(F)(F)F)cc3[nH]2)cc1` (racemic) [compound 69] the “% Inhibition” value (androgen receptor) was 31% and the IC50 [1] was 1200 nM.
